≈ marks a conversion by molar mass, not a printed value.
Columns and labels:
Type in all cases: functional
[1] = test system: Pseudomonas aeruginosa; test: Antibacterial activity against Pseudomonas aeruginosa assessed as growth inhibition after 24 hr by two-fold serial dilution method
[2] = test system: Escherichia coli; test: Antibacterial activity against Escherichia coli assessed as growth inhibition after 24 hr by two-fold serial dilution method; conditions: for MIC: Escherichia coli, 24 h
[3] = test system: Bacillus subtilis; test: Antibacterial activity against Bacillus subtilis assessed as growth inhibition after 24 hr by two fold serial dilution method
[4] = test system: Staphylococcus aureus; test: Antibacterial activity against Staphylococcus aureus assessed as growth inhibition after 24 hr by two fold serial dilution method; conditions: for MIC: Staphylococcus aureus, 24 h
[5] = test system: MCF7; test: Growth inhibition of Homo sapiens (human) MCF7 cells at 10 uM after 48 hr by coulter counter analysis; conditions: MCF7, 48 h, read-out: GI
[6] = test system: SNB-75; test: Growth inhibition of Homo sapiens (human) SNB75 cells at 10 uM after 48 hr by coulter counter analysis; conditions: SNB-75, 48 h, read-out: GI
[7] = test system: UO-31; test: Growth inhibition of Homo sapiens (human) UO31 cells at 10 uM after 48 hr by coulter counter analysis; conditions: UO-31, 48 h, read-out: GI
[8] = test system: NCI-H522; test: Growth inhibition of Homo sapiens (human) NCI-H522 cells at 10 uM after 48 hr by coulter counter analysis; conditions: NCI-H522, 48 h, read-out: GI
[9] = test system: SN12C; test: Growth inhibition of Homo sapiens (human) SN12C cells at 10 uM after 48 hr by coulter counter analysis; conditions: read-out: GI
[10] = test system: HOP-92; test: Growth inhibition of Homo sapiens (human) HOP92 cells at 10 uM after 48 hr by coulter counter analysis; conditions: HOP-92, 48 h, read-out: GI

| SMILES | MIC [1] | -logMIC [2] | MIC [2] | MIC [3] | -logMIC [4] | MIC [4] | inhibition of growth at 10 µM [5] | inhibition of growth at 10 µM [6] | inhibition of growth at 10 µM [7] | inhibition of growth at 10 µM [8] | inhibition of growth at 10 µM [9] | inhibition of growth at 10 µM [10] |
| --- | --- | --- | --- | --- | --- | --- | --- | --- | --- | --- | --- | --- |
| COc1cc(OC)c(N2C(=O)c3nccnc3C2=O)c(OC)c1 | > 100 µg/mL | 4.54 | 9 µg/mL (≈ 28.5 µM) | 9 µg/mL (≈ 28.5 µM) | 4.56 | 8.7 µg/mL (≈ 27.6 µM) |  |  |  |  |  |  |
| Cc1cc(Cl)c(N2C(=O)c3nccnc3C2=O)c(Cl)c1 | 20 µg/mL (≈ 64.9 µM) | 4.65 | 6.9 µg/mL (≈ 22.4 µM) | 20 µg/mL (≈ 64.9 µM) | 4.19 | 20 µg/mL (≈ 64.9 µM) |  |  |  |  |  |  |
| O=C1c2cccc3cccc(c23)C(=O)N1CCN1CCOCC1 | > 100 µg/mL | 3.49 | > 100 µg/mL | > 100 µg/mL | 3.49 | > 100 µg/mL |  |  |  |  |  |  |
| O=C1c2cccc3cccc(c23)C(=O)N1CCc1ccccn1 | > 100 µg/mL | 3.48 | > 100 µg/mL | > 100 µg/mL | 3.48 | > 100 µg/mL |  |  |  |  |  |  |
| O=C1c2cccc3cccc(c23)C(=O)N1c1ccc([N+](=O)[O-])cc1 | > 100 µg/mL | 4.9 | 4 µg/mL (≈ 12.6 µM) | 2.9 µg/mL (≈ 9.11 µM) | 5.04 | 2.9 µg/mL (≈ 9.11 µM) |  |  |  |  |  |  |
| O=C1c2cccc3cccc(c23)C(=O)N1c1ccc([N+](=O)[O-])cc1[N+](=O)[O-] | > 100 µg/mL | 4.96 | 4 µg/mL (≈ 11 µM) | 2.2 µg/mL (≈ 6.06 µM) | 5.31 | 1.8 µg/mL (≈ 4.95 µM) |  |  |  |  |  |  |
| COc1cc(OC)c(N2C(=O)c3cccc4cccc(c34)C2=O)c(OC)c1 | > 100 µg/mL | 5.16 | 2.5 µg/mL (≈ 6.88 µM) | 2.2 µg/mL (≈ 6.05 µM) | 5.26 | 2 µg/mL (≈ 5.5 µM) | 6.42% | 13.2% | 21% | 13.6% | 19.3% | 30.2% |
| Cc1cc(Cl)c(N2C(=O)c3cccc4cccc(c34)C2=O)c(Cl)c1 | 10 µg/mL (≈ 28.1 µM) | 5.21 | 2.2 µg/mL (≈ 6.18 µM) | 20 µg/mL (≈ 56.1 µM) | 4.29 | 18.2 µg/mL (≈ 51.1 µM) | -1.03% | 6.64% | 26.8% | 5.32% | 3.72% | -15.5% |
| O=C1c2cccc3cccc(c23)C(=O)N1c1c(Cl)cc(Cl)cc1Cl | 10 µg/mL (≈ 26.6 µM) | 5.27 | 2 µg/mL (≈ 5.31 µM) | 20 µg/mL (≈ 53.1 µM) | 4.32 | 18 µg/mL (≈ 47.8 µM) | 3.55% | 39.1% | 20.9% | 4.37% | 6.09% |  |
| O=C1c2nccnc2C(=O)N1CCc1ccccn1 | > 100 µg/mL | 3.41 | > 100 µg/mL | > 100 µg/mL | 3.41 | > 100 µg/mL | 2.87% | 11.8% | 20.9% | 3.84% |  | -3.5% |
| O=C1c2nccnc2C(=O)N1CCN1CCOCC1 | > 100 µg/mL | 3.42 | > 100 µg/mL | > 100 µg/mL | 3.42 | > 100 µg/mL |  |  |  |  |  |  |
| O=C(O)c1ccc(N2C(=O)c3nccnc3C2=O)cc1 | > 100 µg/mL | 4.39 | 10.9 µg/mL (≈ 40.5 µM) | 8 µg/mL (≈ 29.7 µM) | 4.5 | 8.5 µg/mL (≈ 31.6 µM) |  |  |  |  |  |  |
| CC1(C)S[C@@H]2[C@H](NC(=O)[C@H](N)c3ccccc3)C(=O)N2[C@H]1C(=O)O [AMPICILLIN] | 10 µg/mL (≈ 28.6 µM) |  | 2.2 µg/mL (≈ 6.3 µM) | 2.2 µg/mL (≈ 6.3 µM) |  | 2.2 µg/mL (≈ 6.3 µM) |  |  |  |  |  |  |
